Results: US4259329A, “17-Cyclobutylmethyl-3-hydroxy-β-methyl-6-methylene morphinane, and methods of treating pain with them” (priority 1980, dated 1981)
“Also recorded” adds a separate entry of the source. Where a name gives a salt, the structure may show the parent alone. Read-outs that look alike come from different tables or passages of the source.

Experiments:
[1] = test system: Physically Morphine Dependent Rats; type: in vivo
Method: (§1) Substitution Studies in Physically Morphine Dependent Rats
(§2) Rats were made physically dependent by continuous infusion of morphine through an indwelling intraperitoneal cannula as has been described (D. G. Teiger, J. Pharmacol. Exp. Ther., 190 408, 1974). Then one day substitution of either TR-5257 or TR-5379 was studied. Both drugs were infused at the rate of 125 mg/kg/day.

[2] = test system: mice (acetic acid writhing); assay: Acetic Acid Mouse Writhing Test (analgesic effects); type: in vivo, male CD-1 mice; settings: sc, 0.25 h, subcutaneous, acetic acid i.p. 15 min post drug, read-out: ED50 (dose required to reduce the number of writhes by 50%)
Method: Acetic Acid Mouse Writhing Test
The analgesic effects of the test compounds were determined in mice by use of the acetic acid writhing test described by B. A. Whittle, Brit. J. Pharmacol., 22: 246 (1964). In this test at least three groups of 5 male CD-1 mice each were given subcutaneous doses of the test drug dissolved in distilled water. In all cases 0.4 milliliters of a 0.5% V/V acetic acid in distilled water solution was administered intraperitoneally 15 minutes post drug. The number of writhes in a 20 minute interval beginning 5 minutes after the acetic acid injection were determined and compared with the number of writhes in a control group which had received only acetic acid.
Percent inhibition of writhing was calculated as: [formula]
The ED50 dose, i.e., the dose required to reduce the number of writhes by 50%, was determined graphically from a plot of % inhibition as a probit verus log dose. Confidence limits of 95% were calculated on the basis of those results falling in the range 16-84% inhibition. See Litchfield, J. T. and Wilcoxon, F., J. Pharmacol. Exp. Ther., 96, 99-113 (1949).

[3] = test system: Physically Morphine Dependent Rats; assay: Incidence of side effects during substitution in morphine dependent rats
Method: as §1, §2
*Post termination of morphine infusion and during test drug infusion.

[4] = test system: rats (effect of morphine, tail flick); assay: Evaluation of Narcotic Antagonist Activity (modified rat tail flick test, antagonism of morphine); type: in vivo, male albino Wistar rats
Method: Evaluation of Narcotic Antagonist Activity
The narcotic antagonist effect of the test compound was determined by a modification of the rat tail flick procedure of Harris and Pierson (J. Pharmacol. Exp. Ther., 143:141 [1964]).
Male albino Wistar rats (100-120 g) were used for this study. A rat's tail is so placed so as to cover a photocell. Heat is applied by a lamp in a reflector with a timer being connected to the lamp and photocell so that the timer goes on when the light is turned on and is turned off when the photocell is uncovered. A rheostat, incorporated into a heating lamp is used to adjust the intensity of the light falling on the tail of the rat such that the rat's control reaction time is from two to four seconds. Animals with a control reaction time outside this range are rejected. The rheostat adjustment is made only if a significant proportion (1 out of every 10 rats) of the reaction times are outside the range of two to four seconds. Groups of 5 rats were used, and two control times were determined at 60 and 30 minutes prior to subcutaneous injection of the drug.
At least thirty minutes after the last control run the test drug was given […]. This was followed ten minutes later by an ED80 dose of morphine subcutaneously. The animals were retested at 20 minutes after the morphine injection. Control animals were given vehicle and morphine only. The data were calculated as follows: [formula]
The data were plotted on log-probit paper and AD50 values, i.e., the dose required to inhibit the effect of morphine by 50% within 95% confidence limits, were determined by the method of Litchfield and Wilcoxon.

drug dependent monkeys = assay: Substitution for morphine in drug dependent monkeys; type: in vivo
[5] = +6 hr post termination of morphine infusion, during test drug infusion

CN1CC[C@]23c4c5ccc(O)c4O[C@H]2[C@@H](O)C=C[C@H]3[C@H]1C5 [Morphine]
Mean % Change in Weight From Termination of Morphine Infusion ([1]; +1 day (test drug infusion stopped here), 125 mg/kg/day for 1 day, morphine: infusion schedule 50-200 mg/kg/day): -16.8%
Mean % Change in Weight From Termination of Morphine Infusion ([1]; +2 days, 125 mg/kg/day for 1 day, morphine: infusion schedule 50-200 mg/kg/day): -12.7%
Mean % Change in Weight From Termination of Morphine Infusion ([1]; +3 days, 125 mg/kg/day for 1 day, morphine: infusion schedule 50-200 mg/kg/day): -7.8%
Mean % Change in Weight From Termination of Morphine Infusion ([1]; +4 days, 125 mg/kg/day for 1 day, morphine: infusion schedule 50-200 mg/kg/day): -1.6%

C[C@H]1CC(=O)C[C@]23CCN(CC4CCC4)[C@H](Cc4ccc(O)cc42)[C@H]13.O=C(O)C(O)C(O)C(=O)O [TR-5257, 17-Cyclobutylmethyl-3-hydroxy-8β-methylmorphinan-6-one Tartrate]
ED50 [2]: 0.14 mg/kg
loss in weight during substitution (in words) ([1]; rat, in vivo): appeared to prevent the marked loss in weight observed in the morphine controls
substitution for morphine ([1]; rat, in vivo): ambiguous, with indication of partial substitution
Mean % Change in Weight From Termination of Morphine Infusion ([1]; rat, in vivo, 125 mg/kg/day): -2.64%
Incidence of Aggressive [3, 5]: 1/8
Incidence of Diarrhea [3, 5]: 4/8
Incidence of Pilo erection [3, 5]: 8/8
Incidence of Wet dog shakes [3, 5]: 6/8
Incidence of Pilo erection ([3]; +24 hr): 4/8
Incidence of Tremors ([3]; +24 hr): 1/4
Incidence of Pilo erection ([3]; +30 hr): 4/8
withdrawal symptoms ([3]; during period of drug substitution, 125 mg/kg/day): marked withdrawal symptoms

C=C1C[C@H](C)[C@H]2[C@H]3Cc4ccc(OC)cc4[C@@]2(CCN3CC2CCC2)C1.Cl [TR-5377, 17-cyclobutylmethyl-3-methoxy-8β-methyl-6-methylene-morphinane Hydrochloride]
ED50 [2]: 6.42 mg/kg

C=C1C[C@H](C)[C@H]2[C@H]3Cc4ccc(O)cc4[C@@]2(CCN3CC2CCC2)C1 [TR-5379, 17-Cyclobutylmethyl-3-hydroxy-8β-methyl-6-methylene morphinane]
morphine antagonist action ([4]; compared with corresponding 6-keto analog): more potent morphine antagonist action than its corresponding 6-keto analog
dose-response curve ([4]; compared with corresponding 6-keto analog, test not named): steeper dose-response curve
ED50 [2]: 0.18 mg/kg
substitution for morphine ([1]; rat, in vivo): did not substitute for morphine; also recorded: does not substitute for morphine
Mean % Change in Weight From Termination of Morphine Infusion ([1]; rat, in vivo, 125 mg/kg/day): -11.3%
Incidence of Aggressive [3, 5]: 1/6
Incidence of Diarrhea [3, 5]: 4/6
Incidence of Pilo erection [3, 5]: 6/6
Incidence of Diarrhea ([3]; +24 hr): 2.6
Incidence of Pilo erection ([3]; +24 hr): 6/6
Incidence of Diarrhea ([3]; +30 hr): 2/6
Incidence of Pilo erection ([3]; +30 hr): 4/6
substitution for morphine (drug dependent monkeys): did not substitute for morphine

C=C1C[C@H](C)[C@H]2[C@H]3Cc4ccc(OC)cc4[C@@]2(CCN3CC2CC2)C1 [TR-5412, 17-cyclopropylmethyl-3-methoxy-8β-methyl-6-methylene-morphinane]
ED50 [2]: 3.2 mg/kg

C=C1C[C@H](C)[C@H]2[C@H]3Cc4ccc(O)cc4[C@@]2(CCN3CC2CC2)C1 [TR-5413, 17-Cyclopropylmethyl-3-hydroxy-8β-methyl-6-methylene-morphinane]
ED50 [2]: 1.7 mg/kg

C=C1CC[C@H]2[C@H]3Cc4ccc(O)cc4[C@@]2(CCN3CC2CCC2)C1 [TR-5566, 17-Cyclobutylmethyl-3-hydroxy-6-methylene-morphinane Hydrochloride Acetone Solvate]
ED50 [2]: 0.09 mg/kg

C=C1CC[C@H]2[C@H]3Cc4ccc(O)cc4[C@@]2(CCN3CC2CC2)C1 [TR-5609, 17-Cyclopropylmethyl-3-hydroxy-6-methylene-morphinan]
ED50 [2]: 0.38 mg/kg

C=C1CC[C@H]2[C@H]3Cc4ccc(OC)cc4[C@@]2(CCN3CC2CCC2)C1 [TR-5610, 17-Cyclobutylmethyl-3-methoxy-6-methylene-morphinane Tartrate Ethanol Solvate]
AD50 (dose required to inhibit the effect of morphine by 50%) ([4]; rat, test drug intraperitoneal, ED80 dose of morphine s.c. 10 min later): IA @ 10
ED50 [2]: 1.6 mg/kg
